Assays:
[1] = biological target: Serine/threonine-protein kinase PAK 4 (Homo sapiens) (UniProt O96013); assay: PAK4 (h) Millipore kinase activity assay; details: Compound concentration 1.0 uM
[2] = biological target: Death-associated protein kinase 2 (Homo sapiens) (UniProt Q9UIK4); assay: DAPK2 (h) Millipore kinase activity assay; details: Compound concentration 1.0 uM
[3] = biological target: Kappa-type opioid receptor (Homo sapiens) (UniProt P41145); details: Compound concentration 10.0 uM
[4] = biological target: Serine/threonine-protein kinase MARK1 (Homo sapiens) (UniProt Q9P0L2); assay: MARK1 (h) Millipore kinase activity assay; details: Compound concentration 1.0 uM
[5] = biological target: Histamine H1 receptor (Homo sapiens) (UniProt P35367); details: Compound concentration 10.0 uM
Chain of Histamine H1 receptor (Homo sapiens) (P35367 whole entry): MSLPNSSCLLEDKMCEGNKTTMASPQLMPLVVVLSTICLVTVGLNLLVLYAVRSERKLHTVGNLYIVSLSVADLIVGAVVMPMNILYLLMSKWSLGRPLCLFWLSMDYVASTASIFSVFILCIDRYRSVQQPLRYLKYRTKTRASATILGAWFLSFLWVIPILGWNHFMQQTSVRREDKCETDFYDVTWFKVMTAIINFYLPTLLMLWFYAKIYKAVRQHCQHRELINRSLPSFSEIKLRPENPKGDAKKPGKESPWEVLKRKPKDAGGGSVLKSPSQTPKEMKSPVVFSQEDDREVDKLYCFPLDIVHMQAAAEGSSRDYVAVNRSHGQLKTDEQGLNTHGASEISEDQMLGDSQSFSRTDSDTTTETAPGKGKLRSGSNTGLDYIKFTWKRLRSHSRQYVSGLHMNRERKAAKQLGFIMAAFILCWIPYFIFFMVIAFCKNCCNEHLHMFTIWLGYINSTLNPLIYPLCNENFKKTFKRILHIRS

[6] = biological target: Serine/threonine-protein kinase TAO2 (Homo sapiens) (UniProt Q9UL54); assay: TAO2 (h) Millipore kinase activity assay; details: Compound concentration 1.0 uM
[7] = biological target: Dual specificity tyrosine-phosphorylation-regulated kinase 2 (Homo sapiens) (UniProt Q92630); assay: DYRK2 (h) Millipore kinase activity assay; details: Compound concentration 1.0 uM
Chain of Dual specificity tyrosine-phosphorylation-regulated kinase 2 (Homo sapiens) (Q92630 whole entry, looked up): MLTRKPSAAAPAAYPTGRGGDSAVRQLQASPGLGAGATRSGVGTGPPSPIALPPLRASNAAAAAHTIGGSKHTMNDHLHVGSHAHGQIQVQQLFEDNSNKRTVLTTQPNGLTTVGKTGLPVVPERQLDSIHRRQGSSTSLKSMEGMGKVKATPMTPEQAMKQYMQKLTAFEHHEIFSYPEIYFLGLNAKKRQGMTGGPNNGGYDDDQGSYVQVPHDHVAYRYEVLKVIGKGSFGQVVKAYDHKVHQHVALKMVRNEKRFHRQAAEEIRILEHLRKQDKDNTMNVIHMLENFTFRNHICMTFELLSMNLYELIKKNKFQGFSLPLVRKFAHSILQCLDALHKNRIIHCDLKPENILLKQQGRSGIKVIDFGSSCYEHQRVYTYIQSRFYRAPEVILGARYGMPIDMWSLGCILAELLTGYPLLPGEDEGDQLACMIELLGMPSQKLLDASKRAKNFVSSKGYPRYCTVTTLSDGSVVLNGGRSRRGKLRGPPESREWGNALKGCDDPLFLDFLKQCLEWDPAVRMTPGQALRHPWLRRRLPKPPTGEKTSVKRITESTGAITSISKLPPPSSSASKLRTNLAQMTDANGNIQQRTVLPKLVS

[8] = biological target: Ephrin type-A receptor 8 (Homo sapiens) (UniProt P29322); assay: EphA8 (h) Millipore kinase activity assay; details: Compound concentration 1.0 uM
[9] = biological target: Proto-oncogene tyrosine-protein kinase Src (Homo sapiens) (UniProt P12931); assay: cSRC (h) Millipore kinase activity assay; details: Compound concentration 1.0 uM
[10] = biological target: Protein kinase C delta type (Homo sapiens) (UniProt Q05655); assay: PKCdelta (h) Millipore kinase activity assay; details: Compound concentration 1.0 uM
[11] = biological target: Neuropeptide Y receptor type 1 (Homo sapiens) (UniProt P25929); assay: Inhibition of Neuropeptide Y Y1 at 10 µM in the Eurofins-Panlabs radioligand binding assay (Eurofins_assay_257010); details: Compound concentration 10.0 uM
Chain of Neuropeptide Y receptor type 1 (Homo sapiens) (P25929 whole entry): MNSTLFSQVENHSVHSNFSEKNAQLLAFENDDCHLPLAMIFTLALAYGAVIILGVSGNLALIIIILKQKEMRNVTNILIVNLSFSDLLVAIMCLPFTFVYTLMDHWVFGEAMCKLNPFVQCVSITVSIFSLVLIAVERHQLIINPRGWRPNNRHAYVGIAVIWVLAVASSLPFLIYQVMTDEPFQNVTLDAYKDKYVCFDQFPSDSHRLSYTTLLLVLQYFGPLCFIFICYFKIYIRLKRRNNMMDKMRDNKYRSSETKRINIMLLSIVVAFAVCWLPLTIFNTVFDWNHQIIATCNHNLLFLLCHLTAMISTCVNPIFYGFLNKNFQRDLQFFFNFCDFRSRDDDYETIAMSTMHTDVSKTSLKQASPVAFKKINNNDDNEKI

[12] = biological target: CDK7/Cyclin H/MNAT1 (Homo sapiens) (UniProt P51946+P50613+P51948); assay: CDK7/cyclinH/MAT1 (h) Millipore kinase activity assay; assay type: protein-complex assay; details: Compound concentration 1.0 uM
[13] = biological target: cAMP-dependent protein kinase catalytic subunit beta (Homo sapiens) (UniProt P22694); details: Compound concentration 1000.0 nM
[14] = biological target: Cyclin-dependent kinase 17 (Homo sapiens) (UniProt Q00537); details: Compound concentration 1000.0 nM
[15] = biological target: Calcium-dependent protein kinase 1 (Plasmodium falciparum) (UniProt P62344); details: Compound concentration 1000.0 nM
[16] = biological target: Testis-specific serine/threonine-protein kinase 1 (Homo sapiens) (UniProt Q9BXA7); details: Compound concentration 1000.0 nM
[17] = biological target: Serine/threonine-protein kinase MAK (Homo sapiens) (UniProt P20794); details: Compound concentration 1000.0 nM
[18] = biological target: Angiopoietin-1 receptor (Homo sapiens) (UniProt Q02763); details: Compound concentration 1000.0 nM
[19] = biological target: Serine/threonine-protein kinase Nek3 (Homo sapiens) (UniProt P51956); details: Compound concentration 1000.0 nM
[20] = biological target: Serine/threonine-protein kinase D2 (Homo sapiens) (UniProt Q9BZL6); details: Compound concentration 1000.0 nM
[21] = biological target: SNF-related serine/threonine-protein kinase (Homo sapiens) (UniProt Q9NRH2); details: Compound concentration 1000.0 nM
[22] = test system: Receptor-type tyrosine-protein kinase FLT3 (Homo sapiens), P36888 [D835Y]; details: Compound concentration 1000.0 nM
[23] = biological target: cAMP-dependent protein kinase catalytic subunit alpha (Homo sapiens) (UniProt P17612); details: Compound concentration 1000.0 nM
[24] = biological target: G protein-coupled receptor kinase 3 (Homo sapiens) (UniProt P35626); details: Compound concentration 1000.0 nM
[25] = biological target: Tyrosine-protein kinase TXK (Homo sapiens) (UniProt P42681); details: Compound concentration 1000.0 nM
[26] = biological target: Tyrosine-protein kinase receptor TYRO3 (Homo sapiens) (UniProt Q06418); details: Compound concentration 1000.0 nM
[27] = biological target: Mitogen-activated protein kinase kinase kinase 9 (Homo sapiens) (UniProt P80192); details: Compound concentration 1000.0 nM
[28] = test system: Epidermal growth factor receptor (Homo sapiens), P00533 [UNDEFINED MUTATION]; details: Compound concentration 1000.0 nM
[29] = biological target: Mitogen-activated protein kinase 3 (Homo sapiens) (UniProt P27361); details: Compound concentration 1000.0 nM
[30] = biological target: Protein-tyrosine kinase 6 (Homo sapiens) (UniProt Q13882); details: Compound concentration 1000.0 nM
[31] = biological target: Cyclin-G-associated kinase (Homo sapiens) (UniProt O14976); details: Compound concentration 1000.0 nM
Chain of Cyclin-G-associated kinase (Homo sapiens) (O14976 whole entry): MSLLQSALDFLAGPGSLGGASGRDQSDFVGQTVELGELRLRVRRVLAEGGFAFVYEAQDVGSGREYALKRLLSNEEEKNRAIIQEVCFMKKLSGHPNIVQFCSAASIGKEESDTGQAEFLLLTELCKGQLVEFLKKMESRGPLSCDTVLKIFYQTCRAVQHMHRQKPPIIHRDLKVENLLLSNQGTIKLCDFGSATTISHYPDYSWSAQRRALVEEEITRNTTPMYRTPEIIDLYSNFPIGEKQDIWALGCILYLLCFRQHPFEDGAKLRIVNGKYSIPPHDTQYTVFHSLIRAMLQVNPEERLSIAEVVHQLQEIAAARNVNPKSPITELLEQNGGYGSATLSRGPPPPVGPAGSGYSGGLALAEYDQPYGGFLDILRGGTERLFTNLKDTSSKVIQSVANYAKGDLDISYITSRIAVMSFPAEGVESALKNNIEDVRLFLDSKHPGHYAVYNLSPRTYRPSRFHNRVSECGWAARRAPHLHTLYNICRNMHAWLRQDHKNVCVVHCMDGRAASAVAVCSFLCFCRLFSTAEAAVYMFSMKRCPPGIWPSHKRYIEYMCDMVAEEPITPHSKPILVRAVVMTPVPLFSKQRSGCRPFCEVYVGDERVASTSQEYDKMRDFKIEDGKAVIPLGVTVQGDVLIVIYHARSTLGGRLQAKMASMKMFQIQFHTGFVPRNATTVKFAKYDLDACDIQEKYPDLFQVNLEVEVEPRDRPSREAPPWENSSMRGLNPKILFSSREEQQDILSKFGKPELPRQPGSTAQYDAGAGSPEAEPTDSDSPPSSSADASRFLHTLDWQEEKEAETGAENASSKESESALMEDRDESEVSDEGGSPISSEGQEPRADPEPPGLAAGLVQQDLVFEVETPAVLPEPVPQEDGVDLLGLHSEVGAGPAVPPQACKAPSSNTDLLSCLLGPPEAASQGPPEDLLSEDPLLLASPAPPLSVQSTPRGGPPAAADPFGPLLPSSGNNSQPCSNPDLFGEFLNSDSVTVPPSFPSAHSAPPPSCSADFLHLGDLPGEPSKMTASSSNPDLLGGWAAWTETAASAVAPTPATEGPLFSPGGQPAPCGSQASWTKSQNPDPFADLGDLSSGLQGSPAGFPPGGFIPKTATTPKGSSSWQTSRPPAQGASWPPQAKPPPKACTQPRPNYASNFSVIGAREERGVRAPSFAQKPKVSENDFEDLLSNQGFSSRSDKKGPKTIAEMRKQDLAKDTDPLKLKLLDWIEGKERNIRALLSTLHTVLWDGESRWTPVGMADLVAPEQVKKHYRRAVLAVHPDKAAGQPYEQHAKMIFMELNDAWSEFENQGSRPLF

[32] = biological target: cAMP-dependent protein kinase catalytic subunit PRKX (Homo sapiens) (UniProt P51817); details: Compound concentration 1000.0 nM
[33] = biological target: Hormonally up-regulated neu tumor-associated kinase (Homo sapiens) (UniProt P57058); details: Compound concentration 1000.0 nM
[34] = biological target: Mitogen-activated protein kinase 8 (Homo sapiens) (UniProt P45983); details: Compound concentration 1000.0 nM
Chain of Mitogen-activated protein kinase 8 (Homo sapiens) (P45983 whole entry): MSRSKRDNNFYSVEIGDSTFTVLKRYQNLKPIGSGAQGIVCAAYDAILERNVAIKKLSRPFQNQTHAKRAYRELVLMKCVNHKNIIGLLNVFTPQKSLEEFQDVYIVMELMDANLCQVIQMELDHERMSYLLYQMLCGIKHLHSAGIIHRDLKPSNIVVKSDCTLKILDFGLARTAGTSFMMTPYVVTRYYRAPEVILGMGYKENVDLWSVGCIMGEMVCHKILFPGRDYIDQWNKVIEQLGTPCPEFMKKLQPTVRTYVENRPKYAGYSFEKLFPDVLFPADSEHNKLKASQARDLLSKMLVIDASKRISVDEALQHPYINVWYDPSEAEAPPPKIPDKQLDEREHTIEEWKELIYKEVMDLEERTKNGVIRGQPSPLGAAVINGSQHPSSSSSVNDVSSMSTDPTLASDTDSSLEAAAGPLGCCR

[35] = biological target: Serine/threonine-protein kinase mTOR (Homo sapiens) (UniProt P42345); details: Compound concentration 1000.0 nM
[36] = biological target: Dual specificity mitogen-activated protein kinase kinase 7 (Homo sapiens) (UniProt O14733); details: Compound concentration 1000.0 nM
[37] = biological target: Non-receptor tyrosine-protein kinase TNK1 (Homo sapiens) (UniProt Q13470); details: Compound concentration 1000.0 nM
[38] = biological target: NUAK family SNF1-like kinase 2 (Homo sapiens) (UniProt Q9H093); details: Compound concentration 1000.0 nM
[39] = test system: Tyrosine-protein kinase ABL1 (Homo sapiens), P00519 [H396P]; details: Compound concentration 1000.0 nM
[40] = biological target: Interleukin-1 receptor-associated kinase 4 (Homo sapiens) (UniProt Q9NWZ3); details: Compound concentration 1000.0 nM
[41] = biological target: Mitogen-activated protein kinase 14 (Homo sapiens) (UniProt Q16539); details: Compound concentration 1000.0 nM
[42] = biological target: Dual specificity mitogen-activated protein kinase kinase 4 (Homo sapiens) (UniProt P45985); details: Compound concentration 1000.0 nM
[43] = biological target: Mitogen-activated protein kinase kinase kinase 7 (Homo sapiens) (UniProt O43318); details: Compound concentration 1000.0 nM
Chain of Mitogen-activated protein kinase kinase kinase 7 (Homo sapiens) (O43318 whole entry): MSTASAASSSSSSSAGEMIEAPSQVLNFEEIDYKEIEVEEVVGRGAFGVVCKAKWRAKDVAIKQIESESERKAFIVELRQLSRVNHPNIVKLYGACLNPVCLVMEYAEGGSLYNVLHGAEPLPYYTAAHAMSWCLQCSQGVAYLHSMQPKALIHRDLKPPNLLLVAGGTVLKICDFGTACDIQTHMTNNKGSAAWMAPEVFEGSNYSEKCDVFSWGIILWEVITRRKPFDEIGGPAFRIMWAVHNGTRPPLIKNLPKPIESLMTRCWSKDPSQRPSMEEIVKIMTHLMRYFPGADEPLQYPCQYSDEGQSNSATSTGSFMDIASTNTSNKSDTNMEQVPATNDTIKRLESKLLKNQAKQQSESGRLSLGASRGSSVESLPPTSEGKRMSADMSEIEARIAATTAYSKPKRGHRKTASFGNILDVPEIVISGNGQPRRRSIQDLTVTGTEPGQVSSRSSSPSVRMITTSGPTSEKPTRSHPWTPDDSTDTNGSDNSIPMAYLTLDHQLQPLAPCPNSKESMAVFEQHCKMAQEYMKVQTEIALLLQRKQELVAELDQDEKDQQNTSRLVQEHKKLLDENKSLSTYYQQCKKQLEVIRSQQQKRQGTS

[44] = biological target: Non-receptor tyrosine-protein kinase TYK2 (Homo sapiens) (UniProt P29597); details: Compound concentration 1000.0 nM
Chain of Non-receptor tyrosine-protein kinase TYK2 (Homo sapiens) (P29597 whole entry): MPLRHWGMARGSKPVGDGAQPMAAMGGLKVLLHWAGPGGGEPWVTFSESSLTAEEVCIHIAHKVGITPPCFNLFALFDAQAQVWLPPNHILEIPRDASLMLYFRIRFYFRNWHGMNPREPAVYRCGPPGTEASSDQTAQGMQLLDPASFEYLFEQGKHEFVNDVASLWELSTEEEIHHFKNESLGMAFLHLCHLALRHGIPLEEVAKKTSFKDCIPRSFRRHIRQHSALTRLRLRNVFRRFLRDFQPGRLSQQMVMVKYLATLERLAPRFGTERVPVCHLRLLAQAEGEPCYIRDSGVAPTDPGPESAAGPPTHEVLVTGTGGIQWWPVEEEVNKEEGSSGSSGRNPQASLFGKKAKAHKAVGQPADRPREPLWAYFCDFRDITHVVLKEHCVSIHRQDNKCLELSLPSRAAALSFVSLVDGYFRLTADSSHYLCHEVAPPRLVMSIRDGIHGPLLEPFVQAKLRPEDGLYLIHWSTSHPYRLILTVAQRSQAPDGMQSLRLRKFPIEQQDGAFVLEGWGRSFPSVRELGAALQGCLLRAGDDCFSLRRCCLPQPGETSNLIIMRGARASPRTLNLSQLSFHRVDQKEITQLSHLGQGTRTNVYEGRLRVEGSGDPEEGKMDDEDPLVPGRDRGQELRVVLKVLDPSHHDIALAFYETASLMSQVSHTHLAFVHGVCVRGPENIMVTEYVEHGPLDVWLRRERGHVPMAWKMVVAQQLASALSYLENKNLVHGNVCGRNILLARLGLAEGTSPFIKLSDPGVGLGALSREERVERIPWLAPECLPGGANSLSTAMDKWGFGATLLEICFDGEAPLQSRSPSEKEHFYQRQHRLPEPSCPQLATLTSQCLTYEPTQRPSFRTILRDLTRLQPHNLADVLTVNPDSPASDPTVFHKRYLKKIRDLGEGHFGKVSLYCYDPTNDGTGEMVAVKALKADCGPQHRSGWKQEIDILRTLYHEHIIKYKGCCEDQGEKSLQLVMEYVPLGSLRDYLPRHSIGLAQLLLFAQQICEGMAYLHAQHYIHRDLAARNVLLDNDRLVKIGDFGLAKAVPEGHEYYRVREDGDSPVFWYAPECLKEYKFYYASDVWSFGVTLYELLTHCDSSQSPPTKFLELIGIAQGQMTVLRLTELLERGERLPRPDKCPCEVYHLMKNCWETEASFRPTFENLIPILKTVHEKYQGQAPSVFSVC

CC1=C(C#N)C(c2ccc3[nH]nc(C)c3c2)C(C#N)=C(C)N1 [BAY-474]
inactive: inhibition [1] 3% | inhibition [2] -4% | inhibition [3] 7% | inhibition [4] 11% | inhibition [5] 17.7% | inhibition [6] -2% | inhibition [7] -8% | inhibition [8] -1% | inhibition [9] 8% | inhibition [10] 2% | inhibition [11] 1% | inhibition [12] -1%

CC1=C(C#N)[C@@H](c2ccc3[nH]nc(C)c3c2)C(C#N)=C(c2ccc(Cl)cc2)N1 [BAY-827]
inactive: residual activity [13] 81.5% | residual activity [14] 87.2% | residual activity [15] 100% | residual activity [16] 100% | residual activity [17] 85.1% | residual activity [18] 74.5% | residual activity [19] 100% | residual activity [20] 100% | residual activity [21] 100% | residual activity [22] 93.5% | residual activity [23] 96.7% | residual activity [24] 85.3% | residual activity [25] 88.1% | residual activity [26] 74.4% | residual activity [27] 90.4% | residual activity [28] 80.4% | residual activity [29] 100% | residual activity [30] 100% | residual activity [31] 100% | residual activity [32] 100% | residual activity [33] 81.4% | residual activity [34] 65.2% | residual activity [35] 79.6% | residual activity [36] 92.2% | residual activity [37] 65% | residual activity [38] 100% | residual activity [39] 79.9% | residual activity [40] 100% | residual activity [41] 100% | residual activity [42] 71.5% | residual activity [43] 100% | residual activity [44] 73.1%
